Experimental data reported in article PMC7672424 (Nucleic Acids Research, 2020).
Blank lines part the entries; values can stand above or below the compound they belong to.

Assays:
[1] = test system: FAM-TTA45-TAMRA (DNA, G4) GGGTTAGGGTTAGGGTTAGGGTTAGGGTTAGGGTTAGGGTTAGGG; test: FRET melting; conditions: 100 mM K+ (KCl) plus 10 mM potassium phosphate, pH 7.0, 0.5 µM DNA
TTA = conditions: CD melting; 5 µM DNA, 20 µM compound; 10 mM Tris-HCl, 50 mM KCl, pH 7.4
Protocol: CD studies were performed on a Chirascan circular dichroism spectrophotometer (Jasco, Easton, MD, USA). A quartz cuvette with a 1 mm path length was used to record the spectra over a wavelength range of 220–320 nm with a 1 nm bandwidth. All the samples were prepared in buffer containing 10 mM Tris–HCl pH 7.4, 100 mM KCl. To ensure the concentrations of G-quadruplex units to be 20 μM, multiple G-quadruplexes forming oligonucleotides with different concentrations were used (TTA (G1) 20 μM, TTA45 (G2) 10 μM, TTA69 (G3) 6.67 μM, TTA93 (G4) 5 μM, TTA117 (G5) 4 μM, TTA141 (G6) 3.33 μM). The DNA samples were heated at 95°C for 5 min and cooled down slowly to room temperature. […] Melting curves were measured at 295 nm and the range of temperature was 4–95°C.
a Melting temperature (T ) of 5 µM DNA samples with and without 20 µM BMPQ-1 analogs in 10 mM Tris-HCl
buffer (50 mM KCl, pH 7.4) was determined by circular dichroism spectroscopy, and ΔTm/°C were derived by

TTA45 [2] = test: FRET melting assay, stabilization of TTA45; format: binding, human; conditions: for ΔTm/°C, TTA45 stabilization by FRET (Table S3) / ΔTm/°C, stabilization of TTA45 by FRET (Table S2): 0.5 µM TTA45, 10 mM K2HPO4/KH2PO4, 100 mM KCl, pH 7.0; for ΔTm/°C, TTA45 stabilization by FRET (Table S3): 20 µM compounds; for stabilization of TTA45 (in words, SAR): FRET assay
Protocol: Based on the conventional G-quadruplex ligand design ([46]), ∼400 compounds were selected from Chinese National Compound library of Peking University (PKU-CNCL). These compounds were evaluated for their ability to bind to TTA45 by Fluorescence Resonance Energy Transfer (FRET) assay (Supplementary Tables S1 and S2) ([47]). […] Compounds 21-38 were purchased to study their binding with TTA45 by FRET (Supplementary Table S3). […] page 4: Table S2. Stabilization of TTA45 as determined by FRET assays (continued). Compounds Structures ΔTm/°C Compounds Structures ΔTm/°C 23 10.3 25 14.6 […] OH 24 […] KCl, pH 7.0) was determined by FRET procedure, and Tm/°C were derived by their difference. The concentration of compounds 21-26 were 20 μM , and other compounds were 50 μM. FRET assay was carried out on the Real-Time PCR 3.2 machine (Analytik Jena, Germany). The total reaction volume was 20 μL with 0.5 μM of oligonucleotide labelled with FAM at the 3' end and TAMRA at 5' end in 10 mM K2HPO4/KH2PO4 (pH 7.0) containing 100 mM KCl. […] Then compounds with various concentrations were added into the DNA samples.

TTA45 [3] = test: CD melting, DNA stabilization; format: binding, human; conditions: 5 µM DNA, 20 µM compound, 10 mM Tris-HCl, 50 mM KCl, pH 7.4
From the text: Compounds Structures IC /µM m

[4] = test system: TTA (DNA, G4) GGGTTAGGGTTAGGGTTAGGG; test: CD melting; conditions: 50 mM K+; 10 mM Tris-HCl pH 7.4; 5 µM DNA, 20 µM compound
[5] = test system: TTA45 (DNA, G4) GGGTTAGGGTTAGGGTTAGGGTTAGGGTTAGGGTTAGGGTTAGGG; test: CD melting; conditions: 50 mM K+; 10 mM Tris-HCl pH 7.4; 5 µM DNA, 20 µM compound
A549 = test: Cell cytotoxicity assay (CCK8); format: cell-based, human; conditions: CCK8, 48 h treatment
Protocol: (§1) The cell growth effect of BMPQ-1 against different cell lines were tested via measuring the quantity of living cells using the Cell Counting Kit-8 (CCK8) (DOJINDO, Japan) according to the instruction. Cells were seeded in a 96-well plate (5 × 10^3 cells/well) and grown for 24 h for attachment. Then the cells were treated with various concentrations of BMPQ-1 and incubated at 37°C with 5% CO2 for 48 h. After incubation, the old medium was discarded followed by adding fresh medium containing 10% FBS in DMEM. Then 100 μl CCK-8 (10% in grow medium) was added into each well, and the cells were further incubated for 1 h. The optical density (OD) was detected at 450 nm by an automated microplate reader (Bio-Rad). The IC50 values were derived from the curves of the mean percentage of survival against the drug concentration. All the experiments were performed in triplicate.
(§2) A Cell Counting Kit-8 (CCK8) (DOJINDO, Japan) was employed to evaluate the cytotoxicity of BMPQ-1 on human alveolar basal epithelial cancer cell line (A549), human hepatocellular carcinoma cancer cell line (HepG2), human gastric cancer cell line (MGC-803), human colon adenocarcinoma (HT29), human normal liver Cells (HL-7702).

[6] = test system: TTA (DNA, G4) GGGTTAGGGTTAGGGTTAGGG; test: CD melting; conditions: 50 mM K+ (KCl); 10 mM Tris-HCl pH 7.4; 20 µM compound, 5 µM DNA
[7] = test system: TTA45 (DNA, G4) GGGTTAGGGTTAGGGTTAGGGTTAGGGTTAGGGTTAGGGTTAGGG; test: CD melting; conditions: 50 mM K+ (KCl); 10 mM Tris-HCl pH 7.4; 20 µM compound, 5 µM DNA
[8] = test system: FAM-TTA45-TAMRA (DNA, G4) GGGTTAGGGTTAGGGTTAGGGTTAGGGTTAGGGTTAGGGTTAGGG; test: FRET melting; conditions: 100 mM K+ (KCl) plus potassium phosphate; 10 mM K2HPO4/KH2PO4 pH 7.0; 0.5 µM DNA, 20 µM compound
HepG2 = test: Cell cytotoxicity assay (CCK8); format: cell-based, human; conditions: CCK8, 48 h treatment
Protocol: as §1, §2

MGC-803 = test: Cell cytotoxicity assay (CCK8); format: cell-based, human; conditions: CCK8, 48 h treatment
Protocol: as §1, §2

HT29 = test: Cell cytotoxicity assay (CCK8); format: cell-based, human; conditions: CCK8, 48 h treatment
Protocol: as §1, §2

ΔTm ([1]; 50 µM compound): 1.54 °C
Structure (SMILES): C(=N\Nc1nnc2c(n1)[nH]c1ccccc12)/c1c2ccccc2cc2ccccc12

ΔTm ([1]; 50 µM compound): 1.12 °C
Structure (SMILES): CCCNC(=O)Cn1nc(-c2ccc(CC)cc2)c2cnc3cc4c(cc3c21)OCCO4

ΔTm ([1]; 20 µM compound): 0.98 ± 0.69 °C
Structure (SMILES): CCOc1ccc2c(c1)c1nnc(-c3ccccc3)c-1cn2-c1ccc(Cl)cc1

ΔTm ([1]; 50 µM compound): 0.70 °C
Structure (SMILES): CN(Cc1ccc2c(c1)OCO2)C(=O)c1nn(C)c2c1CN(C(=O)C1=NOC(c3cccs3)C1)CC2 (centres unmarked)

ΔTm ([1]; 50 µM compound): 3.85 °C
Structure (SMILES): COc1cc2c(-c3ccccc3[N+](=O)[O-])nc3c(c(-c4ccccc4)nn3-c3ccccc3)c2cc1OC

ΔTm ([1]; 20 µM compound): 8.38 ± 1.73 °C
Structure (SMILES): COc1ccc2c(c1)c1nnc(-c3ccc(F)cc3)c-1cn2Cc1ccccc1

ΔTm ([1]; 50 µM compound): 2.17 °C
Structure (SMILES): Cc1cc(C)n(-c2nnc3c4ccccc4n(CC(=O)NCCc4nc5ccccc5[nH]4)c3n2)n1

ΔTm ([1]; 20 µM compound): 6.43 ± 0.70 °C
Structure (SMILES): Cc1ccc2c(c1)c1nnc(-c3ccc(F)cc3)c-1cn2Cc1ccccc1

ΔTm ([1]; 20 µM compound): 2.54 ± 0.16 °C
Structure (SMILES): Clc1ccc(-n2cc3c(-c4ccccc4)nnc-3c3ccccc32)cc1

ΔTm ([1]; 50 µM compound): 1.53 °C
Structure (SMILES): Oc1ccccc1/C=N/Nc1nnc2c3ccccc3n(Cc3ccccc3)c2n1

ΔTm ([1]; 20 µM compound): 11.56 ± 0.36 °C
Structure (SMILES): c1cc2c(cc1Cn1cc3c(-c4ccc5c(c4)OCO5)nnc-3c3cc4c(cc31)OCO4)OCO2

Structure (SMILES): FC(F)(F)c1ccc(Cn2cc3c(-c4ccc5c(c4)OCO5)nnc-3c3cc4c(cc32)OCO4)cc1 [BMPQ-2]
ΔTm (°C) TTA (TTA): 2.3 °C
ΔTm/°C, TTA45 stabilization by FRET (Table S3) (TTA45 [2]): 12.59 ± 0.54 °C
ΔTm/°C, stabilization of TTA45 by FRET (Table S2) (TTA45 [2]; compounds 21-26 20 µM): 12.6 °C
ΔTm (°C) TTA45 (TTA45 [3]): 7.0 °C
ΔTm [4]: 2.3 °C
ΔTm [5]: 7.0 °C
ΔTm ([1]; 20 µM compound): 12.59 ± 0.54 °C
IC50 (A549): 1.99 ± 0.04 µM

Structure (SMILES): Cc1ccc(Cn2cc3c(-c4ccc5c(c4)OCO5)nnc-3c3ccccc32)cc1 [BMPQ-3]
ΔTm (°C) TTA (TTA): 1.1 °C
ΔTm/°C, TTA45 stabilization by FRET (Table S3) (TTA45 [2]): 10.28 ± 0.15 °C
ΔTm/°C, stabilization of TTA45 by FRET (Table S2) (TTA45 [2]; compounds 21-26 20 µM): 10.3 °C
ΔTm (°C) TTA45 (TTA45 [3]): 5.1 °C
ΔTm [6]: 1.1 °C
ΔTm ([1]; 20 µM compound): 10.28 ± 0.15 °C
ΔTm [7]: 5.1 °C
IC50 (A549): > 32 µM

Structure (SMILES): OCCn1cc2c(-c3ccc4c(c3)OCO4)nnc-2c2cc3c(cc21)OCO3 [BMPQ-4]
ΔTm (°C) TTA (TTA): 2.3 °C
ΔTm/°C, TTA45 stabilization by FRET (Table S3) (TTA45 [2]): 7.92 ± 0.12 °C
ΔTm/°C, stabilization of TTA45 by FRET (Table S2) (TTA45 [2]; compounds 21-26 20 µM): 7.9 °C
ΔTm (°C) TTA45 (TTA45 [3]): 4.9 °C
ΔTm [6]: 2.3 °C
ΔTm ([1]; 20 µM compound): 7.92 ± 0.12 °C
ΔTm [7]: 4.9 °C
IC50 (A549): > 32 µM

Structure (SMILES): COc1ccc(-c2nnc3c4cc5c(cc4n(Cc4ccccc4)cc2-3)OCCO5)cc1OC [BMPQ-5]
ΔTm (°C) TTA (TTA): 4.3 °C
ΔTm/°C, TTA45 stabilization by FRET (Table S3) (TTA45 [2]): 14.62 ± 0.46 °C
ΔTm/°C, stabilization of TTA45 by FRET (Table S2) (TTA45 [2]; compounds 21-26 20 µM): 14.6 °C
ΔTm (°C) TTA45 (TTA45 [3]): 4.6 °C
ΔTm [6]: 4.3 °C
ΔTm [7]: 4.6 °C
ΔTm [8]: 14.62 ± 0.46 °C
IC50 (A549): 5.39 ± 0.46 µM

Structure (SMILES): COc1ccc(-c2nnc3c4cc5c(cc4n(Cc4ccccc4)cc2-3)OCO5)cc1 [BMPQ-6]
ΔTm (°C) TTA (TTA): 1.0 °C
ΔTm/°C, TTA45 stabilization by FRET (Table S3) (TTA45 [2]): 11.68 ± 0.53 °C
ΔTm/°C, stabilization of TTA45 by FRET (Table S2) (TTA45 [2]; compounds 21-26 20 µM): 11.7 °C
ΔTm (°C) TTA45 (TTA45 [3]): 3.5 °C
ΔTm [4]: 1.0 °C
ΔTm [5]: 3.5 °C
ΔTm ([1]; 20 µM compound): 11.68 ± 0.53 °C
IC50 (A549): 2.49 ± 0.03 µM

Structure (SMILES): CN(C)c1ccc(Nc2c3ccc(NC(=O)CCN4CCCC4)cc3nc3cc(NC(=O)CCN4CCCC4)ccc23)cc1 [BRACO-19, reference compound]
IC50 (A549): 6.71 ± 0.45 µM
IC50 (HepG2): 6.25 ± 0.8 µM
IC50 (MGC-803): 7.07 ± 0.89 µM
IC50 (HT29): 14.2 ± 1.78 µM

ΔTm ([1]; 50 µM compound): 9.04 °C
Structure (SMILES): CN1CCN(CCCSc2nnc3c(n2)[nH]c2ccccc23)CC1 [Compound 3]
ΔTm/°C, stabilization of TTA45 by FRET (Table S2) (TTA45 [2]; compounds 50 µM): 9.04 °C

Structure (SMILES): Oc1ccccc1C=NNc1nnc2c3ccccc3n(Cc3ccccc3)c2n1 [Compound 5]
ΔTm/°C, stabilization of TTA45 by FRET (Table S2) (TTA45 [2]; compounds 50 µM): 1.53 °C

ΔTm ([1]; 50 µM compound): 5.11 °C
Structure (SMILES): CCC(Sc1nc2cc3c(cc2c(=O)n1Cc1ccc(C(=O)NCc2ccc4c(c2)OCO4)cc1)OCO3)C(=O)N1CCOCC1 (centres unmarked) [Compound 12]
ΔTm/°C, stabilization of TTA45 by FRET (Table S2) (TTA45 [2]; compounds 50 µM): 5.11 °C

Structure (SMILES): Cc1ccc(Cn2cc(C(=O)c3ccc4c(c3)OCO4)c(=O)c3cc4c(cc32)OCO4)cc1 [Compound 15]
ΔTm/°C, stabilization of TTA45 by FRET (Table S2) (TTA45 [2]; compounds 50 µM): 0.70 °C

ΔTm ([1]; 20 µM compound): 14.08 ± 2.11 °C
Structure (SMILES): Cc1ccc(-c2nnc3c4cc5c(cc4n(Cc4ccccc4)cc2-3)OCO5)cc1C [Compound 27]
ΔTm/°C, TTA45 stabilization by FRET (Table S3) (TTA45 [2]): 14.08 ± 2.11 °C

ΔTm ([1]; 20 µM compound): 13.40 ± 1.12 °C
Structure (SMILES): COc1cccc(Cn2cc3c(-c4ccc5c(c4)OCO5)nnc-3c3cc4c(cc32)OCO4)c1 [Compound 30]
ΔTm/°C, TTA45 stabilization by FRET (Table S3) (TTA45 [2]): 13.40 ± 1.12 °C

ΔTm ([1]; 20 µM compound): 15.15 ± 0.23 °C
Structure (SMILES): COc1ccc(Cn2cc3c(-c4ccc5c(c4)OCO5)nnc-3c3cc4c(cc32)OCO4)cc1OC [Compound 31]
ΔTm/°C, TTA45 stabilization by FRET (Table S3) (TTA45 [2]): 15.15 ± 0.23 °C

ΔTm ([1]; 20 µM compound): 10.42 ± 1.60 °C
Structure (SMILES): Fc1ccc(-c2nnc3c4cc5c(cc4n(Cc4ccccc4F)cc2-3)OCCO5)cc1 [Compound 33]
ΔTm/°C, TTA45 stabilization by FRET (Table S3) (TTA45 [2]): 10.42 ± 1.60 °C

Structure (SMILES): CCOc1ccc(-c2nnc3c4cc5c(cc4[nH]cc2-3)OCCO5)cc1 [Compound 34]
ΔTm/°C, TTA45 stabilization by FRET (Table S3) (TTA45 [2]): 3.55 ± 1.20 °C

Structure (SMILES): COc1ccc(-c2nn(-c3ccc(F)cc3)c3c2cnc2cc4c(cc23)OCO4)cc1 [Compound 37]
ΔTm/°C, TTA45 stabilization by FRET (Table S3) (TTA45 [2]): 2.19 ± 0.91 °C
stabilization of TTA45 (in words, SAR) (TTA45 [2]): negligible stabilization

Structure (SMILES): Fc1ccc(-n2nc(-c3ccccc3)c3cnc4cc5c(cc4c32)OCO5)cc1 [Compound 38]
ΔTm/°C, TTA45 stabilization by FRET (Table S3) (TTA45 [2]): 0.30 ± 0.82 °C
stabilization of TTA45 (in words, SAR) (TTA45 [2]): negligible stabilization
